IC50 data for one compound are collected here from patent US9663508B2, “Biaryl acyl-sulfonamide compounds as sodium channel inhibitors” (AMGEN INC., priority 2013, dated 2017).

A value given as a limit tells only on which side of the number the result lay.

One series concerns the target human Nav1.7 (Homo sapiens (Human), UniProt Q15858). As to the kind of experiment: Nav 1.7 in vitro PatchXpress (PX) assay. The note with it: in-vitro Nav 1.7 PX data. Type of series: cell-based.
A further series addresses human Nav 1.5 (Homo sapiens (Human), UniProt Q14524). As to the kind of experiment: Nav 1.5 IonWorks Quattro (IWQ) in vitro assay. It is filed as cell-based. The note with it: in-vitro Nav 1.5 IWQ data; read-out: NAV 1.5 IWQ (IC50).

human Nav 1.5, sequence (Q14524 whole entry): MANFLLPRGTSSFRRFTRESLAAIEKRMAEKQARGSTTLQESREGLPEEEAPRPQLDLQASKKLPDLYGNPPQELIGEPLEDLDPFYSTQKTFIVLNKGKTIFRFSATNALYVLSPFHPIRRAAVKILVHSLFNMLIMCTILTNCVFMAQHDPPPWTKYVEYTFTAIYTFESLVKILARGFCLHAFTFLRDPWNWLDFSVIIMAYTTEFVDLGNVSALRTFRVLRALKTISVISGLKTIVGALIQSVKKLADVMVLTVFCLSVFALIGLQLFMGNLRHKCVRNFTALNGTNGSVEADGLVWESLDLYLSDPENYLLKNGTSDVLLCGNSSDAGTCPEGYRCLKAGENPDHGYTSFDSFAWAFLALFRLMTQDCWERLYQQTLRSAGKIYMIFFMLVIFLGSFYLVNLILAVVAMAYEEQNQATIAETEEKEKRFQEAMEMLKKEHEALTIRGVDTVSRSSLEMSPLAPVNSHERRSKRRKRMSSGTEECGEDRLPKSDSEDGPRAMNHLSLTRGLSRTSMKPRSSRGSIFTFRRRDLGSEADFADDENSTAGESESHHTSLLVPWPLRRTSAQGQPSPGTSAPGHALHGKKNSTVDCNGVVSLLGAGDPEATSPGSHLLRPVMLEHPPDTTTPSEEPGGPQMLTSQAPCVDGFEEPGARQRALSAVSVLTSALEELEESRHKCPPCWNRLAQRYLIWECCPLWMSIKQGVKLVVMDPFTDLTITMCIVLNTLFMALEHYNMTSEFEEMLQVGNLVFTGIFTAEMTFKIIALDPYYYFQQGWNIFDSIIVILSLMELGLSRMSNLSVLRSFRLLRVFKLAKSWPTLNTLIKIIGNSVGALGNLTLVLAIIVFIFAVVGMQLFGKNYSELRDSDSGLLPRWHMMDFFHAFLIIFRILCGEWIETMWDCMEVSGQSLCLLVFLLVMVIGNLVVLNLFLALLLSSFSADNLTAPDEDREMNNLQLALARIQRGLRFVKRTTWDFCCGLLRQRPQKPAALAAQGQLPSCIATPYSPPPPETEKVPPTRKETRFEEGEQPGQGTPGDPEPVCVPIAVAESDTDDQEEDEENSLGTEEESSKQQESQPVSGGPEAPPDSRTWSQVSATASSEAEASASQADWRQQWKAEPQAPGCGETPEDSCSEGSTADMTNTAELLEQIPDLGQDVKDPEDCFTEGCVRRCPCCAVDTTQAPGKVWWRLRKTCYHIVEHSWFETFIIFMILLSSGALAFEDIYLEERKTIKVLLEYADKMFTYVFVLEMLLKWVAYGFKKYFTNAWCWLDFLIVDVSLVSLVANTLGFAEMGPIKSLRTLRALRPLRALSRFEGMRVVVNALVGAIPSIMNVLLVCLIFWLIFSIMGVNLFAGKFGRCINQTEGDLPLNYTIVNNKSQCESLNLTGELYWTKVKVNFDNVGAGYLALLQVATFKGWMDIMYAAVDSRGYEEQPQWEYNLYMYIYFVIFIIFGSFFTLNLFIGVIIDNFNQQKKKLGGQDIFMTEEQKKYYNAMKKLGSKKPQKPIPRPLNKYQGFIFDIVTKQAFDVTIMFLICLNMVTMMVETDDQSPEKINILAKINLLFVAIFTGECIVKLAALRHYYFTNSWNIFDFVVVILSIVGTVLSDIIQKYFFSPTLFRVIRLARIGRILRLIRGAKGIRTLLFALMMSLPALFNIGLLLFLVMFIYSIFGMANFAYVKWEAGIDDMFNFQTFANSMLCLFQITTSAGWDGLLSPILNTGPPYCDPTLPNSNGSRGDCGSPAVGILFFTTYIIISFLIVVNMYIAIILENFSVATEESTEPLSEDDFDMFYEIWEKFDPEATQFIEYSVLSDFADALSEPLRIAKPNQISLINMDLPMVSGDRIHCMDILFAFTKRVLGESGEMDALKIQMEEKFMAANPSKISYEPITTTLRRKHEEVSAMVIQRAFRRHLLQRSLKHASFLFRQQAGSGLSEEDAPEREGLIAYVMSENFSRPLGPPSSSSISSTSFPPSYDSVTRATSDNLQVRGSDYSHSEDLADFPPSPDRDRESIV
human Nav1.7, sequence (Q15858 whole entry): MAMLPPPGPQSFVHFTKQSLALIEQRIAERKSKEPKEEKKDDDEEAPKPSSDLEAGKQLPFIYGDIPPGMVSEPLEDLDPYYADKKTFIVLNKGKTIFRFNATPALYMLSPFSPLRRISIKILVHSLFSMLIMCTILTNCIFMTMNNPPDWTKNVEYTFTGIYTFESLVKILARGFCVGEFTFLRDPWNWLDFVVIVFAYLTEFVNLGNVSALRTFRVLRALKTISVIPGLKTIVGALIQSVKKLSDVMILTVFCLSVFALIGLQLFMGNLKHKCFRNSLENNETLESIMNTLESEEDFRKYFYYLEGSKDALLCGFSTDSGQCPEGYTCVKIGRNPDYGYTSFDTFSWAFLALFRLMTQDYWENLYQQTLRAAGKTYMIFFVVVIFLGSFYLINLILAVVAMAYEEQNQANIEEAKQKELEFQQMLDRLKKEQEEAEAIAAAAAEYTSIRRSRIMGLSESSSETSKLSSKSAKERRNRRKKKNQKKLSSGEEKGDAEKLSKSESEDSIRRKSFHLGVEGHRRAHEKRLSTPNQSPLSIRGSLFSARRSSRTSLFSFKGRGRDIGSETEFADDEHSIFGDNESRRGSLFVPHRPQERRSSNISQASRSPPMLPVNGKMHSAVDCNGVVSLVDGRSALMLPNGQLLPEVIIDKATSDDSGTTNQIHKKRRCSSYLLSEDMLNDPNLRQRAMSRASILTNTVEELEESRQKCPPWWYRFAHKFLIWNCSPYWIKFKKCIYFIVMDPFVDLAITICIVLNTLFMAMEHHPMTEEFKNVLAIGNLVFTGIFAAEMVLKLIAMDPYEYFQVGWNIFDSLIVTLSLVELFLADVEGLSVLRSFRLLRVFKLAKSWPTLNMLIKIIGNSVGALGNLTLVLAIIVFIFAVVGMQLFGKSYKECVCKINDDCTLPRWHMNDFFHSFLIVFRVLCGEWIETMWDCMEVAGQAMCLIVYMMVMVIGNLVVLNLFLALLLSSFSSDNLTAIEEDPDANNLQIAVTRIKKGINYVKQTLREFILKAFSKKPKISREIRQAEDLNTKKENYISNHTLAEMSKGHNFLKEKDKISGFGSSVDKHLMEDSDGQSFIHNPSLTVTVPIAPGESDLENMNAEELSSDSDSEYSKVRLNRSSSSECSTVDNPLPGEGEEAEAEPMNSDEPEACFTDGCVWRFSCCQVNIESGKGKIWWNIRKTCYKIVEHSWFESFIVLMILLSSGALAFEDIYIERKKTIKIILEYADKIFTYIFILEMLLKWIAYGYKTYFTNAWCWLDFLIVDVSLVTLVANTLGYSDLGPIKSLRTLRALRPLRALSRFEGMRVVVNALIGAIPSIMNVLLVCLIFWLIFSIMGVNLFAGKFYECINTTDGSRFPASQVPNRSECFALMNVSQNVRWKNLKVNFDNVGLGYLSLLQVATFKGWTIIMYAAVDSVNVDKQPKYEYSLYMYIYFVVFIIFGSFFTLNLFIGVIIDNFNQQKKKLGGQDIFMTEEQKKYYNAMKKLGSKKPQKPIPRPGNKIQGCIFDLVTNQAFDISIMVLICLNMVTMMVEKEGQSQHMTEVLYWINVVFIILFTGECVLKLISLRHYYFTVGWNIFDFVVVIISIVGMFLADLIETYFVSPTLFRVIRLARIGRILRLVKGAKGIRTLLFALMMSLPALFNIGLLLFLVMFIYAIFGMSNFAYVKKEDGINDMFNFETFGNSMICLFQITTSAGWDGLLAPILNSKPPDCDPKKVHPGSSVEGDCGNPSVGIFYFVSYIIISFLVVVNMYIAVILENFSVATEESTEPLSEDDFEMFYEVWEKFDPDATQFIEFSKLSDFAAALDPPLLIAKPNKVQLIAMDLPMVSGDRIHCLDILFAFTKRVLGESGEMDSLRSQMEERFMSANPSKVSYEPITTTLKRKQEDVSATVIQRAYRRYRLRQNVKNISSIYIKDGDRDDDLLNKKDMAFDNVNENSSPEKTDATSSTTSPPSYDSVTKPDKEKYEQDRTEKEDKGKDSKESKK

Turning to `COc1cc(C(=O)NS(C)(=O)=O)ccc1-c1cnc(Oc2cc(Cl)cc(Cl)c2)c(C)c1` [Example 841, 4-(6-(3,5-Dichlorophenoxy)-5-Methyl-3-Pyridinyl)-3-Methoxy-N-(Methylsulfonyl)Benzamide], the results for the IC50 against human Nav1.7 and on human Nav 1.5 were 82.8 nM and > 3000 nM, respectively.
